Source: US12264299B2, “Detergent composition” (SYMRISE AG, priority 2018, dated 2025)

Test system: Corynebacterium xerosis ATCC373 and Staphylococcus aureus ATCC6538
Assay: Microbial counts on inoculated synthetic fabric after washing and drying
Assay type: cell-based
Conditions: comparison of groups, 24 and 72 hours results
Excerpt: The objective of the following examples and comparison examples has been to evaluate bactericide and bacteriostatic performance of a specific active composition (SymClariol, Symrise AG) at 0.25% and 1% in a regular fabric softener composition.
Inoculate Corynebacterium xerosis ATCC373 and Staphylococcus aureus ATCC6538 in white synthetic fabric 89% polyester and 11% elastane. SymClariol stands for 1,2-decanediol and is a commercially available product distributed by Symrise AG.
Cut the fabric in pieces of 10 cm×10 cm (100 cm^2) to be inoculate.
It was used: • Corynebacterium xerosis ATCC373 strain in saline solution 0.85% • Staphylococcus aureus ATCC6538 strain in saline solution 0.85% • Sterile Saline solution to wet the fabric • Liquid laundry detergent Tixan Ipê batch 065091 16:30 manufactured in March, 2016 and expiration date March, 2018 • Regular Fabric Softener+Active 1 (SymClariol at 0.25%) • Regular Fabric Softener+Active 2 (SymClariol at 1%) • Regular Fabric Softener Placebo • Wash machine Electrolux
All materials were analyzed before the beginning of the tests and had <10 CFU/g for bacteria and fungi and absence of pathogens. An initial wash of the tissue was carried out with the purpose of reducing the initial microbiological count and subsequent counting for a reduction confirmation of 10 CFU/g and absence of pathogens. […]

CCCCCCCCC(O)CO (stereo not shown) [SymClariol, 1,2-decanediol]
bactericide and bacteriostatic performance (in words): improved the bactericide and bacteriostatic performance
